Data from patent US20160243198A1, “Pharmaceutical Composition for Preventing or Treating Osteoporosis Which Comprises Neuropeptide Y as Active Ingredient” (KYUNGPOOK NATIONAL UNIVERSITY INDUSTRY-ACADEMIC COOPERATION …, priority 2013, published 2016).
Entries after “also recorded” stand apart in the source; their conditions may differ.

What was measured:
S1P receptor = settings: administered so as to reduce the number of the osteoclasts in the bone marrow; cited from earlier work
[1] = test system: bone-marrow hematopoietic progenitor cells in blood; experiment: Colony-forming cell (CFC) assay of blood after tail-vein injection; type: in vivo, mice; settings: 50 μg/kg tail vein; after 60 minutes of injection (of 15 minutes, 60 minutes, 12 hours)
Method: (§1) Neuropeptide Y, a Y1 agonist, and a Y1 antagonist were purchased from Bache, and used. To perform an in vitro experiment, 1 nM NPY, and 5 nM NPY were diluted with a medium, and injected. For the in vivo experiment, a total of 15 mice (three mice in each group) were also anesthetized with a mixed solution of 100 mg/kg ketamine and 10 mg/kg xylazine, and 50 μg/kg of either neuropeptide Y, Y1 agonist, or Y1 antagonist, and 100 μl of PBS (Gibco) were injected through the tail veins of the mice.
A colony-forming cell (CFC) assay was performed to measure the number of bone-marrow hematopoietic progenitor cells in blood from mice.
First, the mice were anesthetized, and 500 μl to 700 μl of blood was drawn from the hearts of the mice, and collected in a heparin tube. Thereafter, the collected blood was added to an ammonium chloride solution (Stem Cell Technologies, Inc. 1:10), and kept in ice for 15 minutes to remove red blood cells. The blood was shaken at intervals of 2 to 3 minutes to sufficiently remove the red blood cells, and centrifuged at 1,000 rpm for 7 minutes. […] Then, colonies formed on the flask were counted. […]
To examine an effect of the activation of the neuropeptide Y receptor on the release of the bone marrow precursor cells into the blood, the colony number of the bone marrow precursor cells was also counted using a CFC assay as described in Example 1-4. […]

[2] = test system: bone-marrow haematopoietic stem cell adhesion factors; experiment: Expression of bone-marrow haematopoietic stem cell adhesion factors in bone marrow after tail-vein injection (real-time quantitative PCR); type: in vivo, mice; settings: 50 μg/kg through the tail veins; bone marrow taken after 60 minutes; p<0.05, n=3
Method: as §1
(§2) To measure expression levels of haematopoietic stem cell adhesion factors (Sdf-1a, Kit1, Angpt1, IL7, Vcam1, and Spp1) present in the osteoblasts, a real-time quantitative polymerase chain reaction (PCR) method was used.
(§3) A total of RNAs were extracted from a cell lysate and bone marrow cells using an RNeasy Plus Mini kit (Qiagen, Korea, Ltd), and cDNA was synthesized from a total of 5 μg of RNA using a kit commercially available from Clontech (Mountain View, Calif.). Also, real-time quantitative PCR, which included denaturation at 95° C. for 10 minutes; and 40 cycles with one cycle consisting of denaturation at 95° C. for 10 seconds, annealing at 58° C. for 15 seconds, and extension at 72° C. for 20 seconds, was performed using a Corbett research RG-6000 real-time PCR machine. […]

[3] = test system: bone-marrow haematopoietic stem cells and bone-marrow hematopoietic progenitor cells; experiment: Competitive transplantation assay; type: in vivo, mice
Method: As an experimental method capable of determining the migration of bone-marrow haematopoietic stem cells and bone-marrow hematopoietic progenitor cells present in the bone marrows of the mice into blood, a competitive transplantation assay were performed.
(§4) A mixture of bone marrow cells (2×10^6) of Ly5.2 (C57BL/6) donor mice and bone marrow cells (2×10^6) of Ly5.1 (BoyJ) mice was injected to recipient mice whose whole bodies were exposed to 10 Gy irradiations (2×5 Gy) through the tail veins thereof. On the week 8 of transplantation of the bone marrow cells, blood was drawn from the recipient mice, and analyzed by an LSR II (BD science) flow cytometer using CD45.1-PE (BD Science), and CD45.2-FITC (BD Science) antibodies. Repopulating units (RU) are indicated using a calculation method represented by the following Equation 1.
Repopulating unit (RU)=(20×CD45.2%)/(100−CD45.2%) [Equation 1]
as §4, with “([…])” for “(2×10^6)”, “Repopulating units (RU) are indicated using a calculation method represented by the following Equation 1.” left out

[4] = test system: haematopoietic stem cell adhesion factors (Sdf-1a, Kit1, Angpt1, IL7, Vcam1, and Spp1) present in the osteoblasts; experiment: Expression of haematopoietic stem cell adhesion factors in osteoblasts treated with neuropeptide Y (real-time quantitative PCR); type: cell-based, C57BL/6 mice; settings: neuropeptide Y 0, 1, and 5 nM for 3 days; compared to untreated osteoblasts (control); p<0.05, n=3
Method: as §1
Four- to six-week-old C57BL/6 mice were anesthetized, and sacrificed, and their tibias and femurs were incised. […]
as §2, §3

[5] = test system: bone-marrow haematopoietic stem cells; experiment: Flow cytometry analysis (FAC) of bone-marrow haematopoietic stem cells; type: in vivo, mice; settings: 50 μg/kg; bone marrow after 60 minutes; compared to PBS; p<0.05, n=3
Method: To determine whether there is a change in the number of the bone-marrow haematopoietic stem cells present in the bone marrows from the mice, NPY and PBS were injected to normal mice. After 60 minutes, the bone marrows were collected, and analyzed by flow cytometry analysis (FAC) using five antibodies Lineage, Sca-1, c-kit, CD48, and CD150, which were markers for the bone-marrow haematopoietic stem cells.
To analyze the bone-marrow haematopoietic stem cells, the bone marrows collected from the tibias and femurs of 4- to 6-week-old C57BL/6 mice was added in an ammonium chloride solution (Stem Cell Technologies, Inc. 1:4) to remove red blood cells. Thereafter, the red blood cells were washed with a PBS (Gibco) solution supplemented with 10% fetal bovine serum (FBS, Gibco) and 1% sodium azide (Sigma-Aldrich), and then centrifuged at 300×g for 10 minutes. Hemoblasts included in the bone marrow were removed with MAC beads (MiltenyiBiotec) using a biotinylated lineage antibody (MiltenyiBiotec), and the remaining cells were reacted with Sca-1-PECY7, c-kit-APC, CD150-PE, CD48-FITC (BD Science) antibodies at 4° C. for 30 minutes, and then analyzed using an LSRII (BD Science) flow cytometer.
First, normal mice were divided into two groups (three mice in each group), and 50 μg/kg of neuropeptide Y and 100 μl of PBS (Gibco) were administered to the mice. […]

osteoporosis model = experiment: Osteoporosis model (ovariotomy) and control model, micro-CT of femurs; type: in vivo, C57BL/6 female mice; settings: for entire bone density in micro-CT images: compared to PBS
Method: Also, a total 6 female mice (three mice in each group), 12 weeks old, were subjected to an ovariotomy to establish an osteoporosis model. After a week, 50 μg/kg of neuropeptide Y and 100 μl of PBS (Gibco) were abdominally administered twice a day to the female mice at an interval of 12 hours for 3 weeks. As the control, a total 6 female mice (three mice in each group) were subjected to […] to establish a Sham model for osteoporosis. In this case, 100 μl of PBS or 50 μg/kg of neuropeptide Y was abdominally administered. […] To measure a bone density (bone volume/total volume) and a trabecular thickness, volume fractions with 2.5×0.5×0.5 mm^3 in the same portions of the femurs in each group were measured using Siemens Inveon software. First, three C57BL/6 female mice in each group, 12 weeks old, were subjected to an ovariotomy to establish an osteoporosis model. After a week, 50 μg/kg of neuropeptide Y and 100 μl of PBS (Gibco) were abdominally administered twice a day to the female mice at an interval of 12 hours for 3 weeks. As the control, the normal mice which were subjected to subcutaneous incision alone and into which 100 μl of PBS and 50 μg/kg of neuropeptide Y were abdominally administered were used. On the 22nd day, the femurs of the mice were isolated, and refrigerated in 80% ethanol, and the bone density and the trabecular thickness were then measured using micro CT.

[6] = osteoporotic (OVX) mice, 50 μg/kg abdominally twice a day for 3 weeks, versus PBS, n=3

| Compound | bone formation (S1P receptor) | colony number of the bone-marrow hematopoietic progenitor cells released into the blood [1] | expression levels of the adhesion factors Sdf-1a, Kit1, Angpt1, and Vcam1 in bone marrow [2] | number of the haematopoietic stem cells (CD45.2+ cells) in the bone marrows of injected mice ([3]; compared to bone marrows of mice into which PBS was injected) | ratio of the CD45.2+ cells ([3]; donor bone marrow of injected mice mixed with Ly5.1 bone marrow, recipient blood 8 weeks after transplantation, compared to PBS) | expression levels of Sdf-1a, Kit1, and Angpt1 in osteoblasts [4] | bone-marrow haematopoietic stem cells labeled with Lin−, Sca-1+, c-kit+, CD48−, and CD150+ in the bone marrow [5] | entire bone density in micro-CT images (osteoporosis model; control (Sham) model, 50 μg/kg abdominally) | decrease in bone density and trabecular thickness of the osteoporotic mice (osteoporosis model; long-term administration in the osteoporosis model) | entire bone density in micro-CT images (osteoporosis model; osteoporotic (OVX) mice, 50 μg/kg abdominally twice a day for 3 weeks) | bone density (BV/TV, %) (osteoporosis model; [6]) | trabecular thickness (mm) (osteoporosis model; [6]) |
| --- | --- | --- | --- | --- | --- | --- | --- | --- | --- | --- | --- | --- |
| CCCCCCCCc1ccc(CCC(N)(CO)CO)cc1 [FTY720] | increases | – | – | – | – | – | – | – | – | – | – | – |
| CCCCCCCCCCCCC/C=C/[C@@H](O)[C@@H](N)COP(=O)(O)O [sphingosine-1-phosphate] | increases | – | – | – | – | – | – | – | – | – | – | – |
| neuropeptide Y | – | largest colony number | decreased; also recorded: generally reduced | lower | reduced | decreased in a ration-dependent manner | decreased in the bone marrow | higher entire bone density; also recorded: increased | inhibited | higher entire bone density; also recorded: remarkably increased | higher | higher |
